Consider seven molecules from patent US10201586B2 (dated 2019).

By IC50 is commonly meant the concentration at which inhibition is half-maximal. Read a low IC50 as inhibition by little substance.

Data set [1] has as its target T1, TFPI (Homo sapiens, UniProt P10646). As to the kind of experiment: IC50 Mean (nM].
Excerpt: Head of the field: IC50 Mean (nM]
“*” denotes negative controls.
Data set [2] has as its target T1, TFPI. Put plainly: IC50 [nm].
In data set [3] the target is T1, TFPI. As to the kind of experiment: IC50 [nM].
In data set [4] the target is Tissue Factor Pathway Inhibitor (TFPI) (Homo sapiens, UniProt P10646). Put plainly: IC50 ELISA | IC50 [nM].
The subject of a further data set is C57B1/6NCr1 mice. Put plainly: nail clip blood loss study. It is filed as in vivo, mouse.
Data set [5] is described as follows: pharmacokinetic analysis in mice. It is filed as in vivo, mouse. The settings on record: C57B16 mice, 1 mg/kg (peptide content).
Description: The peptides were administered intravenously to C57B16 mice at a dose of 10 mg/kg. Three biological samples were analyzed for the presence of peptide at each time point.
For pharmacokinetic analysis, C57B16 mice were treated with various TFPI-binding peptides conjugated to different molecular weight PEGs and HSA. The dose of the peptide-PEG and peptide-HSA conjugates was normalized to 1 mg/kg (peptide content). […] Blood draws were taken from three animals (retro bulbar) and collected in heparinized vials at several time points following administration. The samples were centrifuged, and the peptide-conjugate content in plasma was quantified by ELISA.
In data set [6] the test system is human whole blood clot formation. As to the kind of experiment: rotation thromboelastography (ROTEM). To be noted: Hem A (FVIII-inhibited) human whole blood.
Description: Continuous visco-elastic assessment of human whole blood clot formation and firmness was performed by rotation thromboelastography with whole blood preparations in the presence or absence of peptides.
Recordings were made using a ROTEM thromboelastography coagulation analyzer (Pentapharm, Munich, Germany) at 37° C. Briefly, blood is added into a disposable cuvette in a heated cuvette holder. A disposable pin (sensor) is fixed on the tip of a rotating axis. The axis is guided by a high precision ball bearing system and rotates back and forth. The axis is connected with a spring for the measurement of elasticity. The exact position of the axis is detected by the reflection of light on a small mirror on the axis. The loss of elasticity when the sample clots leads to a change in the rotation of the axis. The data obtained are computer analyzed and visualized in a thromboelastogram. […] An elasticity of approximately zero is observed before clot formation begins. Mirror image traces above and below the zero line indicate the effect of clot formation on the rotation of the axis.
The analytical set-up was as follows: to 20 μL of test sample or control, 300 μL of pre-warmed (37° C.) CTI treated citrated whole blood was added, followed by 20 μL of a 1:15 dilution of TF PRP reagent containing recombinant human tissue factor (rTF, 3 pM) (TS40, Thrombinoscope BV, Maastricht, The Netherlands).
The thromboelastographic parameters of clotting time (CT), clot formation time (CFT) and maximum clot firmness (MCF) were recorded in accordance with the manufacturer's instructions. CT is defined as the time from the start of measurement to the start of clot formation. CFT is defined as the time from the start of clot formation until an amplitude of 20 mm is reached. MCF is the maximum difference in amplitude between the two traces during the assay. The first derivative of the data of the thromboelastogram are plotted to obtain a graph of velocity (mm/s) against time (s). From this graph, the maximum velocity (maxV) is determined. The time at which the maximum velocity is obtained (maxV-t) is also determined.
Another data set has as its system FVIII knock-out mice. The settings on record: 1 mg/kg JBT2329 without ADVATE.
Data set [7] is described as follows: plasma stability in human plasma. It is filed as in vitro ADME. The settings on record: 24 hour.
The test system of a further data set is FIX knock-out mice. Put plainly: tail-tip bleed model. It is filed as in vivo, mouse. On the procedure:
The amount of blood was determined gravimetrically.
JBT2329 also was tested in a FIX knock-out tail-tip bleed mouse model, which is a clinically-relevant model for hemophilia B human patients. The methodology was substantially similar to that described above with respect to the FVIII knock-out model. Instead of ADVATE, a recombinant FIX (rFIX) served as a reference. Median total blood loss in buffer-treated animals was 935 mg. Median total blood loss in animals treated with a murine anti-TFPI antibody (maTFPI) was 774 mg. Median total blood loss was reduced further when the animals received combined treatment of maTFPI and rFIX.

Data set [8] addresses T1, TFPI. Put plainly: IC50 [nM]. The source holds these as a separate data set.
Data set [9] has as its target T1, TFPI. As to the kind of experiment: IC50 [nm]. This is another data set of the same source.

Where a SMILES comes first, the peptide text is derived from it. Bridges are numbered along the chain shown (N, C = ends). [ ]: non-standard residue; d: D form. Tle = CC(C)(C)[C@H](N)C(=O)O; Aib = CC(C)(N)C(=O)O

T1 sequence (P10646 29-304 limits assumed): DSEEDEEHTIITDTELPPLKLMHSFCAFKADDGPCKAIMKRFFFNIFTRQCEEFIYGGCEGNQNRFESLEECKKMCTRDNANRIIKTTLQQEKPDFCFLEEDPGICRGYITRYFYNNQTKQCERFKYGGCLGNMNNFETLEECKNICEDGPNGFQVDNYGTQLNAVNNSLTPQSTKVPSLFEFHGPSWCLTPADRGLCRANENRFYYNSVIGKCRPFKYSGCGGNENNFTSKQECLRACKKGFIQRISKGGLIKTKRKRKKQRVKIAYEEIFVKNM
Sequence of Tissue Factor Pathway Inhibitor (TFPI) (P10646 29-304 limits assumed): as above

Turning to `CC[C@H](C)[C@H](NC(=O)[C@@H](NC(=O)CNC(=O)[C@@H]1CCCN1C(=O)CNC(=O)[C@H](Cc1c[nH]c2ccccc12)NC(=O)[C@@H](NC(=O)[C@@H](NC(=O)[C@H](CCCCN)NC(=O)[C@H](CO)NC(=O)[C@H](Cc1c[nH]c2ccccc12)NC(=O)[C@H](Cc1ccccc1)NC(=O)[C@H](Cc1ccc(O)cc1)NC(=O)[C@@H](NC(=O)[C@H](Cc1c[nH]c2ccccc12)NC(=O)[C@H](CC(=O)O)NC(=O)CNC(=O)[C@@H](NC(=O)[C@H](CC(C)C)NC(=O)[C@H](CCCCN)NC(=O)[C@H](CCCCN)NC(C)=O)[C@@H](C)O)[C@@H](C)O)C(C)C)[C@@H](C)CC)C(C)C)C(=O)N[C@@H](CCC(=O)O)C(=O)N[C@@H](CCCNC(=N)N)C(=O)N[C@@H](CCC(N)=O)C(=O)N[C@@H](CCSC)C(=O)N1CCC[C@H]1C(=O)N[C@H](C(=O)N[C@@H](CO)C(=O)N[C@H](C(=O)N[C@@H](Cc1ccccc1)C(=O)N[C@@H](Cc1c[nH]cn1)C(=O)N[C@@H](CCCCN)C(=O)N[C@@H](CCCCN)C(N)=O)[C@@H](C)O)C(C)C` [JBT0177* | 3065] (Ac-KKLTGDWTYFWSKVIWGPGVIERQMPVSTFHKK-NH2), on TFPI [1], the IC50 is above 50000 nM.

On to `CSCC[C@@H]1NC(=O)CNC(=O)[C@@H](NC(=O)[C@H](Cc2c[nH]cn2)NC(=O)[C@H](Cc2c[nH]c3ccccc23)NC(=O)[C@H](CCCCN)NC(=O)[C@H](Cc2ccc(O)cc2)NC(=O)[C@H](Cc2ccc(O)cc2)NC(=O)[C@H](CO)NC(C)=O)CSSC[C@@H](C(=O)N[C@H](C(=O)N[C@@H](Cc2c[nH]c3ccccc23)C(=O)N[C@H](C(=O)N[C@@H](CCCCN)C(=O)N[C@@H](Cc2ccccc2)C(N)=O)C(C)C)C(C)C)NC(=O)[C@H]([C@@H](C)O)NC(=O)[C@H](CCSC)NC(=O)[C@H]([C@@H](C)O)NC(=O)CNC(=O)[C@H](CCCCN)NC(=O)[C@H](CCSC)NC(=O)[C@H](CC(=O)O)NC(=O)[C@H](CCCNC(=N)N)NC1=O` [JBT1815 | 1032] (Ac-SYYKWHCGMRDMKGTMTCVWVKF-NH2; disulfide 7-18), for which the half-maximal inhibitory concentration (IC50) against TFPI [2] was 10 nM.

On TFPI [3], `CC[C@H](C)[C@H](NC(=O)[C@H](CCC(=O)O)NC(=O)[C@H](CCCCN)NC(=O)[C@H](CO)NC(=O)[C@H](CCCNC(=N)N)NC(=O)[C@H](CCCCN)NC(=O)[C@H](CO)NC(=O)[C@@H](NC(=O)[C@H](Cc1c[nH]cn1)NC(=O)[C@H](CC(C)C)NC(=O)[C@H](CCC(N)=O)NC(=O)[C@@H](NC(=O)[C@H](C)NC(=O)[C@H](CCC(N)=O)NC(=O)[C@H](Cc1c[nH]c2ccccc12)NC(=O)[C@H](Cc1ccccc1)NC(=O)[C@H](CO)NC(=O)[C@H](C)NC(=O)[C@H](Cc1ccc(O)cc1)NC(=O)CNC(C)=O)C(C)C)C(C)C)C(=O)N[C@@H](C)C(N)=O` [JBT1663 | 2146] (Ac-GYASFWQAVQLHVSKRSKEIA-NH2) yielded an IC50 of 12900 nM.

Molecule `CC(=O)N[C@@H](Cc1ccccc1)C(=O)N[C@@H](CCC(N)=O)C(=O)N[C@@H](CC(=O)O)C(=O)N[C@@H](CCCCN)C(=O)N1CCC[C@@H]1C(=O)N[C@@H](CC(N)=O)C(=O)N[C@H](C(=O)N[C@@H](Cc1c[nH]cn1)C(=O)N[C@H](C(=O)N[C@@H](CC(=O)O)C(=O)NCC(=O)N[C@@H](Cc1ccc(O)cc1)C(=O)N[C@@H](Cc1ccccc1)C(=O)N[C@@H](CCC(=O)O)C(=O)N[C@@H](CCCNC(=N)N)C(=O)N[C@@H](CC(C)C)C(=O)NC(C)(C)C(=O)N[C@@H](C)C(=O)N[C@@H](CCCCN)C(=O)N[C@@H](CC(C)C)C(N)=O)C(C)(C)C)C(C)C` [JBT2426 | 4144, Ac-FQDKpNVH-Tle-DGYFERL-Aib-AKL-NH2] (Ac-FQDK[dP]NVH[Tle]DGYFERL[Aib]AKL-NH2) had an IC50 in [4] of 10.5 nM.

As for “Ac-FQSKpNVHVDGYFERL-Aib-AKLC(PEG)-NH2 [JBT2329]”, in the data set on C57B1/6NCr1 mice (0.1 mg/kg i.v.), the “blood loss, second 30 minute period” value came to 18.7 µL; the “reduction of blood loss vs vehicle, first 30 minutes” value was “about 50%”; the “reduction of blood loss vs vehicle, second 30 minute period” value was “about 64%”; the “reduction of total blood loss over 60 minutes vs vehicle” value was around 60%. The “total blood loss over 60 minutes” value in the data set with C57B1/6NCr1 mice (0.1 mg/kg i.v.) is 34.7 µL. The “blood loss, first 30 minutes” value with C57B1/6NCr1 mice (0.1 mg/kg i.v., naive C57BL6 mice) is 16.0 µL. Moreover, in the data set with C57B1/6NCr1 mice (1.0 mg/kg i.v.), the “blood loss, entire 60 minute collection period” value amounted to 22.8 µL; the “blood loss, first 30 minutes” value was found to be 12.2 µL; the “blood loss, second 30 minute period” value is 10.6 µL. The “reduction of blood loss during 60 minutes vs vehicle” value in the data set on C57B1/6NCr1 mice (10 mg/kg subcutaneous) is on record as “approximately 58%”. In addition, in data set [5] (intravenous), the “HL_λ_z [h] (intravenous)” value is on record as 19.8 h. Also, the “Bioavailability [%] (s.c.)” value in [5] (s.c. AUC vs i.v. AUC) turned out to be 73.3%. The coagulation parameters entry in data set [6] was “restored prolonged coagulation parameters in Hem A blood”. Besides, the “median total blood loss vs buffer” value in the data set with FVIII knock-out mice is “did not reduce median total blood loss”. The “Human Plasma Stability, 24 hour (%)” value in data set [7] worked out at 67.3%. Besides, in the data set on FIX knock-out mice (1 mg/kg JBT2329 alone (p=0.321)), the “median total blood loss vs buffer” value is “did not lead to a significant reduction in median total blood loss”. Moreover, the “Efficacy vs buffer at a […] level” value with FIX knock-out mice (JBT2329 1 mg/kg or 0.1 mg/kg in combination with 10 IU/kg rFIX) is recorded as “statistically significant superiority over buffer”.

The molecule `CSCC[C@H](NC(=O)[C@H](CCC(=O)O)NC(=O)[C@H](CCCCN)NC(=O)[C@H](CO)NC(=O)[C@H](CCCNC(=N)N)NC(=O)[C@H](CCCCN)NC(=O)[C@H](CO)NC(=O)[C@@H](NC(=O)[C@H](Cc1c[nH]cn1)NC(=O)[C@H](CC(C)C)NC(=O)[C@H](CCC(N)=O)NC(=O)[C@@H](NC(=O)[C@H](C)NC(=O)[C@H](CC(C)C)NC(=O)[C@@H]1CCCN1C(=O)[C@H](CCCCN)NC(=O)[C@H](CCCCN)NC(C)=O)C(C)C)C(C)C)C(=O)N[C@@H](C)C(=O)N[C@@H](CC(C)C)C(=O)N[C@@H](C)C(=O)N[C@@H](CCCNC(=N)N)C(=O)N[C@@H](CC(C)C)C(=O)N[C@@H](Cc1ccc(O)cc1)C(=O)N[C@@H](Cc1ccc(O)cc1)C(=O)N[C@@H](CCCCN)C(=O)N[C@H](C(=O)N[C@@H](CO)C(=O)N[C@@H](CCCCN)C(=O)N[C@@H](CCCCN)C(N)=O)[C@@H](C)O` [JBT0229 | 2129] (Ac-KKPLAVQLHVSKRSKEMALARLYYKTSKK-NH2) yielded an IC50 against TFPI [8] of 17000 nM.

As to `CSCC[C@@H]1NC(=O)[C@H](C)NC(=O)[C@@H](NC(=O)[C@H](Cc2c[nH]cn2)NC(=O)[C@H](Cc2c[nH]c3ccccc23)NC(=O)[C@H](CCCCN)NC(=O)[C@H](Cc2ccc(O)cc2)NC(=O)[C@H](Cc2c[nH]cn2)NC(=O)[C@H](CO)NC(C)=O)CSSC[C@@H](C(=O)N[C@@H](C)C(=O)N[C@@H](Cc2c[nH]c3ccccc23)C(=O)N[C@H](C(=O)N[C@@H](CCCCN)C(=O)N[C@@H](Cc2ccccc2)C(N)=O)C(C)C)NC(=O)[C@H](CO)NC(=O)[C@H](CCSC)NC(=O)[C@H]([C@@H](C)O)NC(=O)CNC(=O)[C@H](CCCCN)NC(=O)[C@H](CCSC)NC(=O)[C@H](CC(=O)O)NC(=O)[C@H](CCCNC(=N)N)NC1=O` [JBT1842 | 1046] (Ac-SHYKWHCAMRDMKGTMSCAWVKF-NH2; disulfide 7-18), 9 nM corresponded to half-maximal inhibition on TFPI [9] (IC50).
